Each structure is given as a SMILES string. “And” between values parts separate entries of the source, which are not always exact repeats. Identical values can stand only once. Inconclusive results and toxic doses are left out.

From PubChem BioAssay AID248 (DTP/NCI, 2004) come the findings set out here.

For this test, the system named is L1210 leukemia ip in BDF1 mice, survival T/C. Kind of test: NCI In Vivo Anticancer Drug Screen. Data for tumor model L1210 Leukemia (intraperitoneal) in B6D2F1 (BDF1) mice. The note with it: endpoint: mean survival time, higher = longer survival. In short, it runs like this: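 Mice bearing the transplanted tumor received compound or vehicle. Survival of the treated group was divided by that of the vehicle-treated control group to give the ratio.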

Where [1] appears, read: dose: 100.0 mg/kg/injection, schedule: Q01DX001 (ip), vehicle: carboxymethylcellulose (CMC).
The mark [2] stands for this setting: dose: 200.0 mg/kg/injection, schedule: Q01DX001 (ip), vehicle: carboxymethylcellulose (CMC).
The mark [3] stands for this setting: dose: 400.0 mg/kg/injection, schedule: Q01DX001 (ip), vehicle: carboxymethylcellulose (CMC).
Where [4] appears, read: dose: 100.0 mg/kg/injection, schedule: Q04DX003 (ip), vehicle: saline with Tween-80.
The mark [5] stands for this setting: dose: 200.0 mg/kg/injection, schedule: Q04DX003 (ip), vehicle: saline with Tween-80.
The mark [6] stands for this setting: dose: 25.0 mg/kg/injection, schedule: Q01DX009 (ip), vehicle: saline.
[7] abbreviates: dose: 50.0 mg/kg/injection, schedule: Q01DX009 (ip), vehicle: saline.
The mark [8] stands for this setting: dose: 100.0 mg/kg/injection, schedule: Q04DX003 (ip), vehicle: saline.
[9] abbreviates: dose: 100.0 mg/kg/injection, schedule: Q01DX001 (ip), vehicle: saline.
Setting [10] is: dose: 200.0 mg/kg/injection, schedule: Q01DX001 (ip), vehicle: saline.
The mark [11] stands for this setting: dose: 400.0 mg/kg/injection, schedule: Q01DX001 (ip), vehicle: saline.
The mark [12] stands for this setting: dose: 100.0 mg/kg/injection, schedule: Q04DX002 (ip), vehicle: Klucel (hydroxypropylcellulose) (HPC).
The mark [13] stands for this setting: dose: 200.0 mg/kg/injection, schedule: Q04DX002 (ip), vehicle: Klucel (hydroxypropylcellulose) (HPC).
The mark [14] stands for this setting: dose: 400.0 mg/kg/injection, schedule: Q04DX002 (ip), vehicle: Klucel (hydroxypropylcellulose) (HPC).
[15] abbreviates: dose: 100.0 mg/kg/injection, schedule: Q01DX009 (ip), vehicle: saline.

Regarding `O=S(=O)(/C=C\c1ccccc1)N(c1ccccc1)c1ccccc1`, the T/C is 102 % of control (dose: 100.0 mg/kg/injection, schedule: Q04DX003 (ip), vehicle: Klucel (hydroxypropylcellulose) (HPC)); 110 % of control (dose: 200.0 mg/kg/injection, schedule: Q04DX003 (ip), vehicle: Klucel (hydroxypropylcellulose) (HPC)); 96 % of control (dose: 400.0 mg/kg/injection, schedule: Q04DX003 (ip), vehicle: Klucel (hydroxypropylcellulose) (HPC)).

Regarding `S=c1[nH]ccn1-c1ccccc1`, the T/C reads like this: under setting [1], 103 % of control; under setting [2], 110 % of control; under setting [3], 101 % of control.

Turning to `CC(C)(C)N(CCO)CC1C(c2ccccc2)C1c1ccccc1` (configuration not stated), the T/C runs as follows: (dose: 12.5 mg/kg/injection, schedule: Q04DX002 (ip), vehicle: Klucel (hydroxypropylcellulose) (HPC)) 103 % of control; (dose: 25.0 mg/kg/injection, schedule: Q04DX002 (ip), vehicle: Klucel (hydroxypropylcellulose) (HPC)) 103 % of control; (dose: 50.0 mg/kg/injection, schedule: Q04DX002 (ip), vehicle: Klucel (hydroxypropylcellulose) (HPC)) 97 % of control.

In the case of `COc1ccc(C23OC2Oc2cc(OC4CCCCO4)ccc2C3=O)cc1` (configuration not stated), the T/C (dose: 50.0 mg/kg/injection, schedule: Q01DX001 (sc), vehicle: steriod suspending solution) was 103 % of control; the T/C (dose: 100.0 mg/kg/injection, schedule: Q01DX001 (sc), vehicle: steriod suspending solution) was 108 % of control; the T/C (dose: 200.0 mg/kg/injection, schedule: Q01DX001 (sc), vehicle: steriod suspending solution) is 106 % of control; the T/C (dose: 400.0 mg/kg/injection, schedule: Q01DX001 (sc), vehicle: steriod suspending solution) is 103 % of control.

`Nc1cc2c(cc1Br)-c1ccccc1/C2=N\O`: the T/C runs as follows: under setting [1], 102 % of control; under setting [2], 102 % of control; under setting [3], 100 % of control.

Take `CCOC(=O)C(C=Nc1ccc(S(N)(=O)=O)cc1)C(=O)OCC`: the T/C was 105 % of control under setting [4]; 92 % of control under setting [5]; 92 % of control (dose: 400.0 mg/kg/injection, schedule: Q04DX003 (ip), vehicle: saline with Tween-80).

`C/C(=C1\SC(=S)N(C2OC(CO)C(O)C(O)C2O)C1=O)c1ccco1` (configuration not stated): the T/C by setting is: (dose: 12.5 mg/kg/injection, schedule: Q01DX005 (ip), vehicle: water) 109 % of control; (dose: 25.0 mg/kg/injection, schedule: Q01DX005 (ip), vehicle: water) 95 % of control; (dose: 50.0 mg/kg/injection, schedule: Q01DX005 (ip), vehicle: water) 111 % of control; (dose: 100.0 mg/kg/injection, schedule: Q01DX005 (ip), vehicle: water) 98 % of control; (dose: 200.0 mg/kg/injection, schedule: Q01DX005 (ip), vehicle: water) 93 % of control.

For `Nc1c(Cl)[nH]cnc1=S`, the T/C (dose: 224.0 mg/kg/injection, schedule: Q01DX Z (ip), vehicle: methylcellulose (MC)) was 98 % of control; the T/C (dose: 334.0 mg/kg/injection, schedule: Q01DX Z (ip), vehicle: methylcellulose (MC)) is 94 % of control; the T/C (dose: 500.0 mg/kg/injection, schedule: Q01DX Z (ip), vehicle: methylcellulose (MC)) was 94 % of control; the T/C (dose: 750.0 mg/kg/injection, schedule: Q01DX Z (ip), vehicle: methylcellulose (MC)) was 94 % of control.

With `CC1=C2CCC(C)C23C2C(=O)OC(=O)C2C1C1C(=O)OC(=O)C13` (configuration not stated), the T/C is, setting by setting: (dose: 12.5 mg/kg/injection, schedule: Q01DX009 (ip), vehicle: saline) 107 % of control; under setting [6], 102 % of control; under setting [7], 103 % of control.

Regarding `c1ccc(C2OCCCOC2c2ccccc2)cc1` (configuration not stated), the T/C under setting [1] is 97 % of control, the T/C under setting [2] was 97 % of control and the T/C under setting [3] was 103 % of control.

Turning to `CC1(COCCOCC2(C)CO2)CO1` (configuration not stated), the T/C by setting is: under setting [8], 97 % of control; (dose: 180.0 mg/kg/injection, schedule: Q01DX009 (ip), vehicle: saline) 106 % of control and 108 % of control; (dose: 200.0 mg/kg/injection, schedule: Q04DX003 (ip), vehicle: saline) 103 % of control; (dose: 266.0 mg/kg/injection, schedule: Q01DX009 (ip), vehicle: saline) 112 % of control; (dose: 400.0 mg/kg/injection, schedule: Q01DX009 (ip), vehicle: saline) 150 % of control.

Take `ICC1CCC(CI)CC1` (configuration not stated): the T/C is, setting by setting: under setting [1], 102 % of control; under setting [2], 102 % of control; under setting [3], 102 % of control.

On to `c1cc2c(c3c1CCCC3)CCC1CCCCC21` (configuration not stated), for which the T/C under setting [1] was 103 % of control, the T/C under setting [2] is 95 % of control and the T/C under setting [3] is 97 % of control.

On to `CC1CCCC1C(=Nc1ccc(Cl)c(Cl)c1)N1CCCCC1` (configuration not stated), for which the T/C is, setting by setting: under setting [9], 105 % of control; under setting [10], 100 % of control; under setting [11], 102 % of control.

In the case of `O=C(Nc1cccc(Cl)c1)Oc1ccc(C2CCCCC2)cc1`, the T/C reads like this: under setting [12], 104 % of control; under setting [13], 99 % of control; under setting [14], 101 % of control.

As for `O=[N+]([O-])c1ccc2c3c(cccc13)CC2`, the T/C under setting [9] is 102 % of control, the T/C under setting [10] is 96 % of control and the T/C under setting [11] was 90 % of control.

In the case of `S=C(NCC1CCCO1)Nc1cccc2ccccc12` (configuration not stated), the T/C is, setting by setting: under setting [12], 95 % of control; under setting [13], 91 % of control; under setting [14], 95 % of control.

`Cc1ccc(S(=O)(=O)[O][Sn-]([CH2]c2ccccc2)([CH2]c2ccccc2)[CH2]c2ccccc2)cc1`: the T/C reads like this: (dose: 50.0 mg/kg/injection, schedule: Q01DX009 (ip), vehicle: olive oil, sesame oil, peanut oil) 97 % of control; (dose: 100.0 mg/kg/injection, schedule: Q01DX009 (ip), vehicle: olive oil, sesame oil, peanut oil) 92 % of control; (dose: 100.0 mg/kg/injection, schedule: Q04DX002 (ip), vehicle: alcohol) 97 % of control; (dose: 200.0 mg/kg/injection, schedule: Q04DX002 (ip), vehicle: alcohol) 90 % of control.

Take `CC1(C)N=C(N)N=C(N)N1c1cccc(CCCCc2ccc(Cl)c(S(=O)(=O)F)c2)c1`: the T/C by setting is: (dose: 7.0 mg/kg/injection, schedule: Q04DX003 (ip), vehicle: saline) 97 % of control; (dose: 12.5 mg/kg/injection, schedule: Q01DX009 (ip), vehicle: saline sonified) 91 % of control; (dose: 12.5 mg/kg/injection, schedule: Q04DX003 (ip), vehicle: saline sonified) 100 % of control; (dose: 14.0 mg/kg/injection, schedule: Q04DX003 (ip), vehicle: saline) 95 % of control; (dose: 25.0 mg/kg/injection, schedule: Q04DX003 (ip), vehicle: saline sonified) 102 % of control; (dose: 28.0 mg/kg/injection, schedule: Q04DX003 (ip), vehicle: saline) 88 % of control. Further, the T/C runs as follows: (dose: 50.0 mg/kg/injection, schedule: Q04DX003 (ip), vehicle: saline sonified) 96 % of control; (dose: 56.0 mg/kg/injection, schedule: Q04DX003 (ip), vehicle: saline) 93 % of control.

Regarding `C=CCOP(OCC=C)OCC=C`, the T/C under setting [6] was 103 % of control; the T/C under setting [7] is 103 % of control; the T/C (dose: 50.0 mg/kg/injection, schedule: Q04DX003 (ip), vehicle: saline) was 97 % of control; the T/C under setting [15] is 87 % of control; the T/C under setting [8] was 101 % of control.

In the case of `CC(C)(CO)NC=O` (tested in a mixture with another compound), the T/C is 107 % of control under setting [7]; 113 % of control under setting [15]; 113 % of control (dose: 200.0 mg/kg/injection, schedule: Q01DX009 (ip), vehicle: saline).

`CCOC(=O)c1c(NC(=O)C(F)(F)F)[nH]c(SSc2[nH]c(NC(=O)C(F)(F)F)c(C(=O)OCC)c2C(=O)OCC)c1C(=O)OCC`: the T/C runs as follows: (dose: 25.0 mg/kg/injection, schedule: Q01DX009 (ip), vehicle: saline with Tween-80) 97 % of control; (dose: 50.0 mg/kg/injection, schedule: Q01DX009 (ip), vehicle: saline with Tween-80) 102 % of control; (dose: 100.0 mg/kg/injection, schedule: Q01DX009 (ip), vehicle: saline with Tween-80) 97 % of control; under setting [4], 105 % of control; under setting [5], 86 % of control.
